In one test the test system is Jurkat T cells. The experiment in a line: Pro-apoptotic activity on Jurkat T cells (FITC-Annexin V / 7-AAD flow cytometry). Format: cell-based. The conditions noted are these: Homo sapiens, 72 hours, cells stained with FITC-Annexin V and 7-AAD among total cells, read-out: Cell Apoptosis Effect to Jurkat T Cell (% in 5 μM). How it is done:
In order to investigate the effects of the prepared compounds, the apoptosis-inducing effects of the compounds on human T cell acute lymphoblastic leukemia cell line, Jurkat T cells, were evaluated in the following manner.
Jurkat T cells cultured in RPMI medium containing 10% fetal bovine serum (FBS) were collected and stained with trypan blue (Sigma). […] Then, the cells were centrifuged at 1200 rpm at room temperature for 5 minutes and re-suspended in 10% FBS-containing RPMI medium at a concentration of 1.5×10^5 cells/mL. 200 μL of the cell suspension was dispensed into each well of a flat bottom 96-well plate (Costar). Then, the cells were treated with 10 μL of the diluted compounds in RPMI medium at final concentrations of […] or 5 μM, and incubated in a 5% CO2 incubator at 37° C. for 72 hours. In a vehicle control group, the cells were treated with 10 μL of RPMI medium containing 1% of dimetylsulfoxide (DMSO, Sigma). The incubated cells were harvested, put into 5-mL FACS tubes (BD Falcon), washed with 1 mL of phosphate buffered saline (PBS), and then re-suspended in 0.1 mL of binding buffer (10 mM Hepes-NaOH, pH 7.4, 140 mM NaCl, […] CaCl2). The suspended cells were stained with fluorescein isothiocyanate (FITC)-Annexin V (BD Biosciences) and 7-amino-actinomycin D (7-AAD, e-Biosciences) at room temperature for 15 minutes. The stained cells were suspended in 0.3 mL of binding buffer and analyzed by a flow cytometer. Apoptosis was determined by the ratio (%) of cells stained with FITC-Annexin V and 7-AAD among the total cells (see Tables 10 and 11).
With `Cc1cc(C)c(OCC(=O)N/N=C/c2cc3ccccc3[nH]2)c(C)c1` [Compound 109, (E)-N′-((1H-indol-2-yl)methylene)-2-(mesityloxy)acetohydrazide], the cytotoxicity at 5 µM amounted to 100%.
For `Cc1cc(CO)cc(C)c1OCC(=O)N/N=C/c1ccc2cc[nH]c2c1` [Compound 228, (E)-N′-((1H-indol-6-yl)methylene)-2-(4-(hydroxymethyl)-2,6-dimethylphenoxy)acetohydrazide], the cytotoxicity at 5 µM came out at 100%.
The same measure, in the same setting: for `O=C(COc1ccccc1C(F)(F)F)N/N=C/c1ccc2[nH]ccc2c1` [Compound 193] the value was 100%; for `Cc1cc(C)c(OCC(=O)N(COC(=O)CN(C)C)/N=C/c2ccc3cc[nH]c3c2)c(C)c1` [Compound 236, (E)-(2-((1H-indol-6-yl)methylene)-1-(2-(mesityloxy)acetyl)hydrazinyl)methyl 2-(dimethylamino)acetate], 100%.
As to `Cc1ccccc1OCC(=O)N/N=C/c1ccc2c(ccn2CN(C)C)c1` [Compound 072], the cytotoxicity at 5 µM was determined as 95%.
Turning to `Cc1cc(C)c(OCC(=O)N(CO)/N=C/c2cccc3[nH]ccc23)c(C)c1` [Compound 244, (E)-N′-((1H-indol-4-yl)methylene)-N-(hydroxymethyl)-2-(mesityloxy)acetohydrazide], the cytotoxicity at 5 µM was 100%.
Consider `Cc1cc(C)c(OCC(=O)N(CCN2CCOCC2)/N=C/c2ccc3cc[nH]c3c2)c(C)c1` [Compound 198], for which the cytotoxicity at 5 µM came to 100%.
`Cc1cc(C)c(OCC(=O)N/N=C/c2ccc3cc[nH]c3c2)c(-c2ccncc2)c1` [Compound 217, (E)-N′-((1H-indol-6-yl)methylene)-2-(2,4-dimethyl-6-(pyridin-4-yl)phenoxy)acetohydrazide]: the cytotoxicity at 5 µM came out at 100%.
Turning to `Cc1cc(C)c(OCC(=O)N/N=C/c2ccc3[nH]ccc3c2)c(-c2cccnc2)c1` [Compound 184, (E)-N′-((1H-indol-5-yl)methylene)-2-(2,4-dimethyl-6-(pyridin-3-yl)phenoxy)acetohydrazide], the cytotoxicity at 5 µM was found to be 100%.
Same read-out and setting: to `Cc1cc(-c2cnc(N)nc2)cc(C)c1OCC(=O)N/N=C/c1ccc2cc[nH]c2c1` [Compound 152, (E)-N′-((1H-indol-6-yl)methylene)-2-(4-(2-aminopyrimidin-5-yl)-2,6-dimethylphenoxy)acetohydrazide] belongs 90%.
The same measure, in the same setting: to `Cc1cc(C(C)(C)C)c(OCC(=O)N/N=C/c2cccc3[nH]ccc23)c(C(C)(C)C)c1` [Compound 127, (E)-N′-((1H-indol-4-yl)methylene)-2-(2,6-di-tert-butyl-4-methylphenoxy)acetohydrazide] belongs 100%.

Still in this test, the particulars now being: Homo sapiens, 72 hours, cells stained with FITC-Annexin V and 7-AAD among total cells, read-out: Jurkat T Cell Apoptosis (% in 5 μM).
For the molecule `N#Cc1cc(Br)ccc1OCC(=O)N/N=C/c1cccc2[nH]ccc12` [Compound 330, (E)-N′-((1H-indol-4-yl)methylene)-2-(4-bromo-2-cyanophenoxy)acetohydrazide], the cytotoxicity at 5 µM came to 80%.
Still for that read-out and setting: to `Cc1ncccc1OCC(=O)N(CO)/N=C/c1cccc2[nH]ccc12` [Compound 289] belongs 100%; to `COc1ccc(OCC(=O)N/N=C/c2cccc3[nH]ccc23)c(-c2ccco2)c1` [Compound 346, (E)-N′-((1H-indol-4-yl)methylene)-2-(2-(furan-2-yl)-4-methoxyphenoxy)acetohydrazide], 100%; to `Cc1cccc(-c2ccoc2)c1OCC(=O)N/N=C/c1ccc2cc[nH]c2c1` [Compound 313, (E)-N′-((1H-indol-6-yl)methylene)-2-(2-(furan-3-yl)-6-methylphenoxy)acetohydrazide], 100%.
Regarding `Cc1cc(C)c(OCC(=O)N/N=C/c2ccc3cc[nH]c3c2)c(-c2cccs2)c1` [Compound 345], the cytotoxicity at 5 µM turned out to be 95%.
Still for that read-out and setting: to `CCc1nc(C)ccc1OCC(=O)N/N=C/c1cccc2[nH]ccc12` [Compound 329, (E)-N′-((1H-indol-4-yl)methylene)-2-((2-ethyl-6-methylpyridin-3-yl)oxy)acetohydrazide] belongs 100%.

Values taken from US9447083B2, “N-acylhydrazone derivatives for selective T cell inhibitor and anti-lymphoid malignancy drug” (CHONG KUN DANG PHARMACEUTICAL CORP., priority 2012, dated 2016).
